Measured values from patent publication US8937072B2, “Substituted cyanoaniline compounds, preparation and use thereof” (Sinochem Corporation, priority 2011, dated 2015).
Read-outs that look alike come from different tables or passages of the source.

What was measured:
[1] = system: rice blast; experiment: microbe, parasite or virus in culture; type: cell-based; conditions: for inhibition at 0.03 µg/mL: read-out: the inhibition rate against rice blast (%) 0.03 mg/L; for inhibition at 0.1 µg/mL: read-out: the inhibition rate against rice blast (%) 0.1 mg/L; for the inhibition rate against rice blast (%) 0.03 mg/L: Table 21, 0.03 mg/L; for the inhibition rate against rice blast (%) 0.1 mg/L: Table 21, 0.1 mg/L; for the inhibition rate against rice blast (%) 0.3 mg/L: Table 21, 0.3 mg/L; for inhibition rate against rice blast: in vitro
[2] = system: cucumber gray mold; experiment: Activity in vitro (96-well, High Through Put): inhibition rate against cucumber gray mold; type: cell-based; conditions: for inhibition at 25 µg/mL: dose 25 mg/L
Protocol: The method is as followed: High Through Put is used in the test. The compound is dissolved in a proper solvent to become a testing solution whose concentration is designed. The solvent is selected from acetone, methanol, DMF and so on according to their dissolving capability to the sample. In a no animalcule condition, the testing solution and pathogens suspension are added into the cells of 96 cells culture board, which then should be placed in the constant temperature box. 24 hours later, pathogen germination or growth can be investigated by eyeballing, and the activity in vitro of the compound is evaluated based on germination or growth of control treatment.

[3] = system: cucumber downy mildew; experiment: Protectant activity in vivo (whole plant) against cucumber downy mildew; conditions: for pest or weed control at 12.5 µg/mL / pest or weed control at 25 µg/mL / pest or weed control at 50 µg/mL / pest or weed control at 100 µg/mL: Cucumis sativus, 168 h
Summary of the method: (§1)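 Whole plants sprayed with test solution, water plus 0.1% Tween-80 and no more than 5% solvent, then inoculated with the pathogen after 24 h. Plants held in humidity chamber or directly in greenhouse depending on fungus. Disease control scored by eye at about 7 days.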

[4] = system: corn rust; experiment: Protectant activity in vivo (whole plant) against corn rust
Summary of the method: as §1

[5] = Pyricularia oryzae, read-out: inhibition rate against rice blast
[6] = Pyricularia oryzae, read-out: the inhibition rate against rice blast (%) 0.3 mg/L
[7] = 0.9 mg/L, read-out: the inhibition rate against cucumber gray mold (%)
[8] = 2.8 mg/L, read-out: the inhibition rate against cucumber gray mold (%)
[9] = 8.3 mg/L, read-out: the inhibition rate against cucumber gray mold (%)
[10] = in vitro, dose 2.8 mg/L, read-out: inhibition rate against cucumber gray mold
[11] = 25 mg/L, read-out: the protectant activity (%) against cucumber downy mildew
[12] = 50 mg/L, read-out: the protectant activity (%) against cucumber downy mildew
[13] = 100 mg/L, read-out: the protectant activity (%) against cucumber downy mildew
[14] = dose 25 mg/L, read-out: protectant activity against cucumber downy mildew in vivo
[15] = dose 50 mg/L, read-out: protectant activity against cucumber downy mildew in vivo

N#Cc1c(F)c(F)c(Nc2c(Cl)c(F)nc(F)c2Cl)c(F)c1C#N [KC28]
inhibition at 2.8 µg/mL [1, 5]: 0%
inhibition at 8.3 µg/mL [1, 5]: 50%
inhibition at 25 µg/mL [1, 5]: 80%
inhibition at 0.03 µg/mL ([1]; Pyricularia oryzae): 0%
inhibition at 0.1 µg/mL ([1]; Pyricularia oryzae): 0%
inhibition at 0.3 µg/mL [1, 6]: 0%
inhibition at 0.3 µg/mL ([2]; 0.3 mg/L): 0%
inhibition at 0.9 µg/mL [2, 7]: 0%
inhibition at 2.8 µg/mL [2, 8]: 0%
inhibition at 8.3 µg/mL [2, 9]: 0%
inhibition at 8.3 µg/mL ([2]; in vitro, dose 8.3 mg/L, read-out: inhibition rate against cucumber gray mold): 0%
inhibition at 25 µg/mL ([2]; in vitro): 80%

COc1ccc(Nc2c(F)c(F)c(C#N)c(F)c2C#N)cc1 [KC10]
inhibition at 0.3 µg/mL [1, 5]: 0%
inhibition at 0.9 µg/mL [1, 5]: 50%
inhibition at 0.03 µg/mL ([1]; Pyricularia oryzae): 0%
inhibition at 0.1 µg/mL ([1]; Pyricularia oryzae): 0%
inhibition at 0.3 µg/mL [1, 6]: 0%
inhibition at 0.3 µg/mL ([2]; 0.3 mg/L): 0%
inhibition at 0.9 µg/mL [2, 7]: 0%
inhibition at 2.8 µg/mL [2, 8]: 0%
inhibition at 8.3 µg/mL [2, 9]: 80%
inhibition at 2.8 µg/mL [2, 10]: 0%
pest or weed control at 12.5 µg/mL ([3]; 12.5 mg/L): 0%
pest or weed control at 25 µg/mL [3, 11]: 0%
pest or weed control at 50 µg/mL [3, 12]: 10%
pest or weed control at 100 µg/mL [3, 13]: 20%
pest or weed control at 25 µg/mL [3, 14]: 0%
pest or weed control at 50 µg/mL [3, 15]: 10%

N#Cc1cc(Cl)c(Nc2c(Cl)c(Cl)c(C#N)c(Cl)c2C#N)c(Cl)c1 [Compound B-51]
the inhibition rate against rice blast (%) 0.03 mg/L [1]: 0%
the inhibition rate against rice blast (%) 0.1 mg/L [1]: 50%
the inhibition rate against rice blast (%) 0.3 mg/L [1]: 100%
the inhibition rate against cucumber gray mold (%) ([2]; 0.9 mg/L): 80%
the inhibition rate against cucumber gray mold (%) ([2]; 2.8 mg/L): 80%
the inhibition rate against cucumber gray mold (%) ([2]; 8.3 mg/L): 100%

N#Cc1c(Cl)c(Cl)c(Nc2c(Cl)c(Cl)c(C#N)c(Cl)c2C#N)c(C#N)c1Cl [Compound B-69]
inhibition rate against rice blast ([1]; dose 8.3 mg/L): 80%
protectant activity against cucumber downy mildew in vivo ([3]; dose 400 mg/L): 100%
protectant activity against corn rust in vivo ([4]; dose 400 mg/L): 100%

CN(C)c1c(Cl)c(Nc2c(Cl)cc([N+](=O)[O-])cc2Cl)c(C#N)c(Cl)c1C#N [Compound B-73]
the inhibition rate against rice blast (%) 0.03 mg/L [1]: 0%
the inhibition rate against rice blast (%) 0.1 mg/L [1]: 0%
the inhibition rate against rice blast (%) 0.3 mg/L [1]: 80%
inhibition rate against rice blast ([1]; dose 0.3 mg/L): 80%
the protectant activity (%) against cucumber downy mildew ([3]; 25 mg/L): 50%
the protectant activity (%) against cucumber downy mildew ([3]; 50 mg/L): 100%
the protectant activity (%) against cucumber downy mildew ([3]; 100 mg/L): 100%
protectant activity against cucumber downy mildew in vivo ([3]; dose 50 mg/L): 100%
protectant activity against cucumber downy mildew in vivo ([3]; dose 100 mg/L): 100%
protectant activity against cucumber downy mildew in vivo ([3]; dose 400 mg/L): 100%
the protectant activity (%) against corn rust ([4]; 6.25 mg/L): 30%
the protectant activity (%) against corn rust ([4]; 25 mg/L): 70%
the protectant activity (%) against corn rust ([4]; 100 mg/L): 100%
the protectant activity (%) against corn rust ([4]; 400 mg/L): 98%
protectant activity against corn rust in vivo ([4]; dose 100 mg/L): 100%
protectant activity against corn rust in vivo ([4]; dose 400 mg/L): 100%

N#Cc1c(F)c(F)c(Nc2ccc(C(F)(F)F)cc2Cl)c(C#N)c1F [Compound B-92]
inhibition rate against rice blast ([1]; dose 0.3 mg/L): 80%
protectant activity against cucumber downy mildew in vivo ([3]; dose 50 mg/L): 98%
protectant activity against cucumber downy mildew in vivo ([3]; dose 100 mg/L): 100%
protectant activity against cucumber downy mildew in vivo ([3]; dose 400 mg/L): 100%
protectant activity against corn rust in vivo ([4]; dose 100 mg/L): 100%
protectant activity against corn rust in vivo ([4]; dose 400 mg/L): 100%

N#Cc1c(Cl)c(Cl)c(C#N)c(Nc2c(F)cc([N+](=O)[O-])cc2F)c1Cl [Compound C-45]
the inhibition rate against rice blast (%) 0.03 mg/L [1]: 100%
the inhibition rate against rice blast (%) 0.1 mg/L [1]: 100%
the inhibition rate against rice blast (%) 0.3 mg/L [1]: 100%
the inhibition rate against cucumber gray mold (%) ([2]; 0.3 mg/L): 100%
the inhibition rate against cucumber gray mold (%) ([2]; 0.9 mg/L): 100%
the inhibition rate against cucumber gray mold (%) ([2]; 2.8 mg/L): 100%
the inhibition rate against cucumber gray mold (%) ([2]; 8.3 mg/L): 100%

N#Cc1c(Cl)c(Cl)c(C#N)c(Nc2c(Cl)cc([N+](=O)[O-])cc2Br)c1Cl [Compound C-49]
the inhibition rate against rice blast (%) 0.03 mg/L [1]: 100%
the inhibition rate against rice blast (%) 0.1 mg/L [1]: 100%
the inhibition rate against rice blast (%) 0.3 mg/L [1]: 100%
the protectant activity (%) against corn rust ([4]; 6.25 mg/L): 50%
the protectant activity (%) against corn rust ([4]; 25 mg/L): 80%
the protectant activity (%) against corn rust ([4]; 100 mg/L): 90%
the protectant activity (%) against corn rust ([4]; 400 mg/L): 100%
protectant activity against corn rust in vivo ([4]; dose 400 mg/L): 100%

N#Cc1c(Cl)c(Cl)c(Nc2ccc([N+](=O)[O-])cc2Cl)c(C#N)c1Cl [Compound B-35]
the inhibition rate against rice blast (%) 0.03 mg/L [1]: 50%
the inhibition rate against rice blast (%) 0.1 mg/L [1]: 80%
the inhibition rate against rice blast (%) 0.3 mg/L [1]: 100%
the inhibition rate against cucumber gray mold (%) ([2]; 0.3 mg/L): 100%
the inhibition rate against cucumber gray mold (%) ([2]; 0.9 mg/L): 100%
the inhibition rate against cucumber gray mold (%) ([2]; 2.8 mg/L): 100%
the inhibition rate against cucumber gray mold (%) ([2]; 8.3 mg/L): 100%
the protectant activity (%) against cucumber downy mildew ([3]; 12.5 mg/L): 98%
the protectant activity (%) against cucumber downy mildew ([3]; 25 mg/L): 98%
the protectant activity (%) against cucumber downy mildew ([3]; 50 mg/L): 98%
the protectant activity (%) against cucumber downy mildew ([3]; 100 mg/L): 100%
protectant activity against cucumber downy mildew in vivo ([3]; dose 12.5 mg/L): 98%
protectant activity against cucumber downy mildew in vivo ([3]; dose 50 mg/L): 98%
protectant activity against cucumber downy mildew in vivo ([3]; dose 100 mg/L): 100%
protectant activity against cucumber downy mildew in vivo ([3]; dose 400 mg/L): 100%

N#Cc1c(F)c(F)c(Nc2ccc([N+](=O)[O-])cc2)c(C#N)c1F [KC11]
inhibition at 0.9 µg/mL [1, 5]: 0%
inhibition at 0.03 µg/mL ([1]; Pyricularia oryzae): 0%
inhibition at 0.1 µg/mL ([1]; Pyricularia oryzae): 0%
inhibition at 0.3 µg/mL [1, 6]: 0%
inhibition at 0.3 µg/mL ([2]; 0.3 mg/L): 0%
inhibition at 0.9 µg/mL [2, 7]: 0%
inhibition at 2.8 µg/mL [2, 8]: 0%
inhibition at 8.3 µg/mL [2, 9]: 50%
inhibition at 2.8 µg/mL [2, 10]: 0%
pest or weed control at 12.5 µg/mL ([3]; 12.5 mg/L): 0%
pest or weed control at 25 µg/mL [3, 11]: 0%
pest or weed control at 50 µg/mL [3, 12]: 0%
pest or weed control at 100 µg/mL [3, 13]: 0%
pest or weed control at 25 µg/mL [3, 14]: 0%
pest or weed control at 50 µg/mL [3, 15]: 0%

N#Cc1c(Cl)c(Cl)c(Nc2cc(C(F)(F)F)ccc2Cl)c(C#N)c1Cl [Compound B-29]
the inhibition rate against rice blast (%) 0.03 mg/L [1]: 0%
the inhibition rate against rice blast (%) 0.1 mg/L [1]: 50%
the inhibition rate against rice blast (%) 0.3 mg/L [1]: 100%
the inhibition rate against cucumber gray mold (%) ([2]; 0.9 mg/L): 50%
the inhibition rate against cucumber gray mold (%) ([2]; 2.8 mg/L): 80%
the inhibition rate against cucumber gray mold (%) ([2]; 8.3 mg/L): 80%
inhibition rate against cucumber gray mold ([2]; in vitro, dose 8.3 mg/L): 80%
the protectant activity (%) against cucumber downy mildew ([3]; 12.5 mg/L): 30%
the protectant activity (%) against cucumber downy mildew ([3]; 25 mg/L): 100%
the protectant activity (%) against cucumber downy mildew ([3]; 50 mg/L): 100%
the protectant activity (%) against cucumber downy mildew ([3]; 100 mg/L): 100%
protectant activity against cucumber downy mildew in vivo ([3]; dose 25 mg/L): 100%
protectant activity against cucumber downy mildew in vivo ([3]; dose 50 mg/L): 100%
protectant activity against cucumber downy mildew in vivo ([3]; dose 100 mg/L): 100%
protectant activity against cucumber downy mildew in vivo ([3]; dose 400 mg/L): 100%

CN(C)c1ccc(Nc2c(Cl)c(Cl)c(C#N)c(Cl)c2C#N)cc1 [KC23]
inhibition at 25 µg/mL [1, 5]: 0%
inhibition at 0.03 µg/mL ([1]; Pyricularia oryzae): 0%
inhibition at 0.1 µg/mL ([1]; Pyricularia oryzae): 0%
inhibition at 0.3 µg/mL [1, 6]: 0%
inhibition at 0.3 µg/mL ([2]; 0.3 mg/L): 0%
inhibition at 0.9 µg/mL [2, 7]: 0%
inhibition at 2.8 µg/mL [2, 8]: 0%
inhibition at 8.3 µg/mL [2, 9]: 0%
inhibition at 25 µg/mL ([2]; in vitro): 0%
